Laboratory results published in patent publication EP4789666A1, “RNA M6A REGULATOR COMPOSITION, PREPARATION METHOD THEREFOR, AND USE THEREOF” (SHANGHAI MERNA THERAPEUTICS CO. LTD, priority 2023, dated 2025).

How the values were obtained:
[1] = Pharmacokinetic study after single topical administration of ointment to the skin of SD rats (LC-MS/MS); format: in vivo; conditions: rat, 20 mg/cm^2, SD rats, 20 mg/cm^2, 20 cm^2, mean
Procedure: 6 SD rats were divided into two groups, with 3 rats per group, where one group received an ointment containing the compound of formula (I) by single topical application to the dorsal skin at 20 mg/cm^2 (3% suspension ointment), with an application area of 20 cm^2, and the other group received an ointment containing the compound of formula (I) by single topical application to the dorsal skin at 20 mg/cm^2 (10% suspension ointment), with an application area of 20 cm^2. The plasma concentration and dorsal skin tissue homogenate concentration of the compound of formula (I) were determined by an LC-MS/MS method.

[2] = Stability test of binary mixtures of the compound of formula (I) and penetration enhancers; format: physicochemical; conditions: binary mixture 10:1, 40°C/75%RH
Procedure: Different types of penetration enhancers and the compound of formula (I) were mixed at a weight ratio of 10:1 to carry out a stability test under accelerated conditions of 40°C/75%RH. Table 15: Stability test of binary mixtures of the compound of formula (I) and penetration enhancers

[3] = Pharmacokinetic study after single topical administration of ointment to the skin of Bama miniature pigs (LC-MS/MS); format: in vivo; conditions: pig, 3% suspension ointment, 20 mg/cm^2, mean
Procedure: 2 Bama miniature pigs respectively received an ointment containing the compound of formula (I) by single topical application to the dorsal and abdominal skin at 20 mg/cm^2 (3% suspension ointment), with a total application area of 6.8% of a body surface area, and a ratio of application areas between the dorsal and abdominal skin being approximately 1:1. The plasma concentration and skin tissue homogenate concentration of the compound of formula (I) were determined by an LC-MS/MS method.

concentration at 24 h ([1]; dorsal skin tissue homogenate, dorsal skin homogenate, 3% suspension ointment, read-out: Drug concentration in skin tissues at 24 h): 161000 ng/g
concentration at 24 h ([1]; dorsal skin tissue homogenate, dorsal skin homogenate, 10% suspension ointment, read-out: Drug concentration in skin tissues at 24 h): 800000 ng/g
concentration at 24 h ([1]; plasma, 3% suspension ointment, read-out: Plasma drug concentration at 24 h): 3.21 ng/mL
concentration at 24 h ([1]; plasma, 10% suspension ointment, read-out: Plasma drug concentration at 24 h): 17.3 ng/mL
stability in diisopropyl oxalate [2]: unstable
stability in propylene carbonate [2]: unstable
concentration at 24 h ([3]; read-out: Drug concentration in dorsal dermis skin tissues at 24 h): 88300 ng/g
concentration at 24 h ([3]; abdominal skin tissue, read-out: Drug concentration in abdominal skin tissues at 24 h): 111000 ng/g
concentration at 24 h ([3]; plasma, read-out: Plasma drug concentration at 24 h): 17.7 ng/mL
AUC(0-t) ([3]; topical or ocular, plasma): 304 ng·h/mL
Cmax ([3]; topical or ocular, plasma): 21.6 ng/mL
MRT inf ([3]; topical or ocular, plasma): 15.2 h
Tmax ([3]; topical or ocular, plasma): 16 h
Structure (SMILES): NC(=O)[C@H]1CCCc2c1[nH]c1ccc(Cl)cc21 [Compound of formula (I), (S)-6-chloro-2,3,4,9-tetrahydro-1H-carbazole-carboxamide]
